Results from patent US9169254B2, “Spiroimidazolone derivative” (Chugai Seiyaku Kabushiki Kaisha, priority 2009, dated 2015).

Molecular target: T1, human PTH1 receptor (Homo sapiens, UniProt Q03431)
T1 sequence (Q03431 27-593): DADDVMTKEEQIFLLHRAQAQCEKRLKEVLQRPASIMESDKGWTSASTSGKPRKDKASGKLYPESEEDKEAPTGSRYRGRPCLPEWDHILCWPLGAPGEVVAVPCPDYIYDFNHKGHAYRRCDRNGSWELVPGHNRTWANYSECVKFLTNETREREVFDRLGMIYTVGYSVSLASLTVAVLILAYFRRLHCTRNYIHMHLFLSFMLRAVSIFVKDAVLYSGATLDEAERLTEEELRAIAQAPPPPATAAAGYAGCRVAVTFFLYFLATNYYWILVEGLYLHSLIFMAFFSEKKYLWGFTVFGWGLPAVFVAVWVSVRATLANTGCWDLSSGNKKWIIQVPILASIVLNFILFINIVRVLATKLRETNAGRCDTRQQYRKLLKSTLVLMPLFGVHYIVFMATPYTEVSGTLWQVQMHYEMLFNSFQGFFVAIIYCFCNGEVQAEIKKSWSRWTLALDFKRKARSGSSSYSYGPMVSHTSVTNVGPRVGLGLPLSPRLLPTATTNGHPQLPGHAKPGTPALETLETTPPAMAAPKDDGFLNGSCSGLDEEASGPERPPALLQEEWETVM
Test: In vitro cAMP signal activity in HKRK-B7 cells (LLC-PK1 cells overexpressing the human PTH1 receptor)
Format: cell-based
Details: HKRK-B7 cells; compound at 1×10^−3 M; cAMP produced as percentage of that produced by hPTH(1-34) at 100 nM

Structure (SMILES)	cAMP production activity (%)
[2H]C([2H])([2H])C([2H])(Oc1ccc(C2=NC3(CCN(S(=O)(=O)/C=C/c4c(C)cc(C(=O)N5CCC(O)(CF)CC5)cc4C)CC3)C(=O)N2)cc1C(F)(F)F)C([2H])([2H])[2H] [Compound 1262, 8-{(E)-2-[4-(4-fluoromethyl-4-hydroxy-piperidine-1-carbonyl)-2,6-dimethyl-phenyl]-ethenesulfonyl}-2-(4-[1,2,2,2,2,2,2-^2H7]isopropoxy-3-trifluoromethyl-phenyl)-1,3,8-triaza-spiro[4.5]dec-1-en-4-one]	90
Cc1cc(C(=O)N2CCC(O)(CF)CC2)cc(C)c1/C=C/S(=O)(=O)N1CCC2(CC1)N=C(c1ccc(F)c(OCCCC(F)(F)C(F)(F)F)c1)NC2=O [Compound 1263, 8-{(E)-2-[4-(4-fluoromethyl-4-hydroxy-piperidine-1-carbonyl)-2,6-dimethyl-phenyl]-ethenesulfonyl}-2-[4-fluoro-3-(4,4,5,5,5-pentafluoro-pentyloxy)-phenyl]-1,3,8-triaza-spiro[4.5]dec-1-en-4-one]	73
Cc1cc(C(=O)N2CCC(O)(CF)CC2)cc(C)c1/C=C/S(=O)(=O)N1CCC2(CC1)N=C(c1ccc(F)c(OCCCF)c1)NC2=O [Compound 1264, 2-[4-fluoro-3-(3-fluoro-propoxy)-phenyl]-8-{(E)-2-[4-(4-fluoromethyl-4-hydroxy-piperidine-1-carbonyl)-2,6-dimethyl-phenyl]-ethenesulfonyl}-1,3,8-triaza-spiro[4.5]dec-1-en-4-one]	77
Cc1cc(C(=O)N2CCC(O)(CF)CC2)cc(C)c1/C=C/S(=O)(=O)N1CCC2(CC1)N=C(c1ccc(OC(C)(C)C(F)(F)F)c(C(F)(F)F)c1)NC2=O [Compound 1265, 8-{(E)-2-[4-(4-fluoromethyl-4-hydroxy-piperidine-1-carbonyl)-2,6-dimethyl-phenyl]-ethenesulfonyl}-2-[4-(2,2,2-trifluoro-1,1-dimethyl-ethoxy)-3-trifluoromethyl-phenyl]-1,3,8-triaza-spiro[4.5]dec-1-en-4-one]	89
Cc1cc(C(=O)N2CCC(O)(CF)CC2)cc(C)c1/C=C/S(=O)(=O)N1CCC2(CC1)N=C(c1ccc(C(F)(F)F)c(OC(C)(C)C(F)(F)F)c1)NC2=O [Compound 1266, 8-{(E)-2-[4-(4-fluoromethyl-4-hydroxy-piperidine-1-carbonyl)-2,6-dimethyl-phenyl]-ethenesulfonyl}-2-[3-(2,2,2-trifluoro-1,1-dimethyl-ethoxy)-4-trifluoromethyl-phenyl]-1,3,8-triaza-spiro[4.5]dec-1-en-4-one]	96
Cc1cc(C(=O)N2CCC(O)(CF)CC2)cc(C)c1/C=C/S(=O)(=O)N1CCC2(CC1)N=C(c1cccc(C(C)(F)F)c1)NC2=O [Compound 1267, 2-[3-(1,1-difluoro-ethyl)-phenyl]-8-{(E)-2-[4-(4-fluoromethyl-4-hydroxy-piperidine-1-carbonyl)-2,6-dimethyl-phenyl]-ethenesulfonyl}-1,3,8-triaza-spiro[4.5]dec-1-en-4-one]	74
Cc1cc(C(=O)N2CCC(O)(CF)CC2)cc(C)c1/C=C/S(=O)(=O)N1CCC2(CC1)N=C(c1ccc3cc[nH]c3c1)NC2=O [Compound 1268, 8-{(E)-2-[4-(4-fluoromethyl-4-hydroxy-piperidine-1-carbonyl)-2,6-dimethyl-phenyl]-ethenesulfonyl}-2-(1H-indol-6-yl)-1,3,8-triaza-spiro[4.5]dec-1-en-4-one]	33
Cc1cc(C(=O)N2CCC(O)(CF)CC2)cc(C)c1/C=C/S(=O)(=O)N1CCC2(CC1)N=C(c1ccc(OC(F)(F)F)cc1)NC2=O [Compound 1269, 8-{(E)-2-[4-(4-fluoromethyl-4-hydroxy-piperidine-1-carbonyl)-2,6-dimethyl-phenyl]-ethenesulfonyl}-2-(4-trifluoromethoxy-phenyl)-1,3,8-triaza-spiro[4.5]dec-1-en-4-one]	92
Cc1cc(C(=O)N2CCC(O)(CF)CC2)cc(C)c1/C=C/S(=O)(=O)N1CCC2(CC1)N=C(c1ccc(OC(F)(F)F)c(OCCCC(F)(F)F)c1)NC2=O [Compound 1273, 8-{(E)-2-[4-(4-fluoromethyl-4-hydroxy-piperidine-1-carbonyl)-2,6-dimethyl-phenyl]-ethenesulfonyl}-2-[3-(4,4,4-trifluoro-butoxy)-4-trifluoromethoxy-phenyl]-1,3,8-triaza-spiro[4.5]dec-1-en-4-one]	81

More lines, now with the values ahead:

cAMP production activity (%)	Structure (SMILES)
61	Cc1cc(C(=O)N2CCC(O)(CF)CC2)cc(C)c1/C=C/S(=O)(=O)N1CCC2(CC1)N=C(c1ccc(Cl)c(OCC(F)(F)C(F)(F)F)c1)NC2=O [Compound 1270, 2-[4-chloro-3-(2,2,3,3,3-pentafluoro-propoxy)-phenyl]-8-{(E)-2-[4-(4-fluoromethyl-4-hydroxy-piperidine-1-carbonyl)-2,6-dimethyl-phenyl]-ethenesulfonyl}-1,3,8-triaza-spiro[4.5]dec-1-en-4-one]
92	Cc1cc(C(=O)N2CCC(O)(CF)CC2)cc(C)c1/C=C/S(=O)(=O)N1CCC2(CC1)N=C(c1ccc(Cl)c(OC(C)(C)C(F)(F)F)c1)NC2=O [Compound 1271, 2-[4-chloro-3-(2,2,2-trifluoro-1,1-dimethyl-ethoxy)-phenyl]-8-{(E)-2-[4-(4-fluoromethyl-4-hydroxy-piperidine-1-carbonyl)-2,6-dimethyl-phenyl]-ethenesulfonyl}-1,3,8-triaza-spiro[4.5]dec-1-en-4-one]
71	[2H]C([2H])([2H])C([2H])([2H])Oc1cc(C2=NC3(CCN(S(=O)(=O)/C=C/c4c(C)cc(C(=O)N5CCC(O)(CF)CC5)cc4C)CC3)C(=O)N2)ccc1F [Compound 1272, 2-(3-[1,1,2,2,2-^2H5]ethoxy-4-fluoro-phenyl)-8-{(E)-2-[4-(4-fluoromethyl-4-hydroxy-piperidine-1-carbonyl)-2,6-dimethyl-phenyl]-ethenesulfonyl}-1,3,8-triaza-spiro[4.5]dec-1-en-4-one]
81	Cc1cc(C(=O)N2CCC(O)(CF)CC2)cc(C)c1/C=C/S(=O)(=O)N1CCC2(CC1)N=C(c1ccc(C(F)(F)F)c(OCC(F)(F)C(F)F)c1)NC2=O [Compound 1274, 8-{(E)-2-[4-(4-fluoromethyl-4-hydroxy-piperidine-1-carbonyl)-2,6-dimethyl-phenyl]-ethenesulfonyl}-2-[3-(2,2,3,3-tetrafluoro-propoxy)-4-trifluoromethyl-phenyl]-1,3,8-triaza-spiro[4.5]dec-1-en-4-one]
89	Cc1cc(C(=O)N2CCC(O)(CF)CC2)cc(C)c1CCS(=O)(=O)N1CCC2(CC1)N=C(c1ccc3c(c1)OC(F)(F)O3)NC2=O [Compound 1275, 2-(2,2-difluoro-benzo[1,3]dioxol-5-yl)-8-{2-[4-(4-fluoromethyl-4-hydroxy-piperidine-1-carbonyl)-2,6-dimethyl-phenyl]-ethanesulfonyl}-1,3,8-triaza-spiro[4.5]dec-1-en-4-one]
140	Cc1cc(C(=O)N2CCC(O)(CF)CC2)cc(C)c1CCS(=O)(=O)N1CCC2(CC1)N=C(c1ccc(OC(F)(F)F)cc1)NC2=O [Compound 1276, 8-{2-[4-(4-fluoromethyl-4-hydroxy-piperidine-1-carbonyl)-2,6-dimethyl-phenyl]-ethanesulfonyl}-2-(4-trifluoromethoxy-phenyl)-1,3,8-triaza-spiro[4.5]dec-1-en-4-one]
95	Cc1cc(C2=NC3(CCN(S(=O)(=O)CCc4c(C)cc(C(=O)N5CCC(O)(CF)CC5)cc4C)CC3)C(=O)N2)ccc1C(F)(F)F [Compound 1277, 8-{2-[4-(4-fluoromethyl-4-hydroxy-piperidine-1-carbonyl)-2,6-dimethyl-phenyl]-ethanesulfonyl}-2-(3-methyl-4-trifluoromethyl-phenyl)-1,3,8-triaza-spiro[4.5]dec-1-en-4-one]
95	Cc1cc(C(=O)N2CCC(O)(CF)CC2)cc(C)c1CCS(=O)(=O)N1CCC2(CC1)N=C(c1ccc(C(F)(F)F)c(Cl)c1)NC2=O [Compound 1278, 2-(3-chloro-4-trifluoromethyl-phenyl)-8-{2-[4-(4-fluoromethyl-4-hydroxy-piperidine-1-carbonyl)-2,6-dimethyl-phenyl]-ethanesulfonyl}-1,3,8-triaza-spiro[4.5]dec-1-en-4-one]
113	Cc1cc(C(=O)N2CCC(O)(CF)CC2)cc(C)c1CCS(=O)(=O)N1CCC2(CC1)N=C(c1ccc(C(F)(F)F)c(OCC(F)(F)C(F)F)c1)NC2=O [Compound 1279, 8-{2-[4-(4-fluoromethyl-4-hydroxy-piperidine-1-carbonyl)-2,6-dimethyl-phenyl]-ethanesulfonyl}-2-[3-(2,2,3,3-tetrafluoro-propoxy)-4-trifluoromethyl-phenyl]-1,3,8-triaza-spiro[4.5]dec-1-en-4-one]
74	Cc1cc(C(=O)N2CCC(O)(CF)CC2)cc(C)c1/C=C/S(=O)(=O)N1CCC2(CC1)N=C(c1ccc3c(c1)OC(F)(F)O3)NC2=O [Compound 1280, 2-(2,2-difluoro-benzo[1,3]dioxol-5-yl)-8-{(E)-2-[4-(4-fluoromethyl-4-hydroxy-piperidine-1-carbonyl)-2,6-dimethyl-phenyl]-ethenesulfonyl}-1,3,8-triaza-spiro[4.5]dec-1-en-4-one]
